Measurements: patent US20250082674A1, “METHODS OF TREATING COPPER METABOLISM-ASSOCIATED DISEASES OR DISORDERS” (priority 2021, published 2025)

Test system: ^64CuCl2 (^64Cu) intestinal absorption and hepatic copper uptake
Assay: Example 2: Copper Absorption study, oral 64Cu PET-CT in healthy subjects
Type: in vivo, human
Settings: healthy subjects; for mean SUV liver / hepatic uptake of labeled copper, comparison between treatments: 1 hour and 15 hours after oral 64Cu; for reduction of mean hepatic copper uptake: 1 hr scan post treatment, oral 64Cu, 7 days treatment
Description: Blood was collected at several time points to assess plasma copper kinetics. The study was carried out as a randomized, placebo-controlled intervention study. […] The study assessed the previously listed organs and the effect of anti-copper treatment by comparing the mean standard uptake value (SUV) in the organs of interest. […] The dynamic baseline scans and the subsequent static scans were compared across all treatments.

Row | Compound | mean SUV liver / hepatic uptake of labeled copper, comparison between treatments | reduction of mean hepatic copper uptake
1 | CC(C)(S)[C@@H](N)C(=O)O [penicillamine, (2S)-2-amino-3-methyl-3-sulfanylbutanoic acid, reference compound] | not different from placebo | approximately 25%
2 | NCCNCCNCCN [trientine, N′-[2-(2-aminoethylamino)ethyl]ethane-1,2-diamine, reference compound] | significantly lower than with penicillamine | ~50%
